Test results as given in ChEMBL document CHEMBL3046419, “Nematicidal activity of anion transport blockers against Meloidogyne incognita, Caenorhabditis elegans and Heterorhabditis bacteriophora” (Pest Manag Sci, 2008).
In brackets after ≈: the same amount, converted by molar mass. Activity calls are given as the source filed them. No cut-off for these calls is given here.

Tests used:
Meloidogyne incognita [1] = assay: Nematicidal activity against J2 juveniles of Meloidogyne incognita (root-knot nematode) after 120 hr relative to control; type: functional
Meloidogyne incognita [2] = assay: Nematicidal activity against J2 juveniles of Meloidogyne incognita (root-knot nematode) after 72 hr relative to control; type: functional
Caenorhabditis elegans [3] = assay: Inhibition of […] in Caenorhabditis elegans N2 Bristol assessed as increase in pharyngeal musle contraction frequency at 50 mg/l after 6 hr relative to control; type: functional, organism-based
Meloidogyne incognita [4] = assay: Ovicidal activity against Meloidogyne incognita (root-knot nematode) eggs after 168 hr; type: functional, organism-based
Caenorhabditis elegans [5] = assay: Nematicidal activity against adult Caenorhabditis elegans N2 Bristol after 168 hr; type: functional
Caenorhabditis elegans [6] = assay: Nematicidal activity against adult Caenorhabditis elegans N2 Bristol after 48 hr; type: functional
Caenorhabditis elegans [7] = assay: Nematicidal activity against adult Caenorhabditis elegans N2 Bristol assessed as mortality at 40 mg/l after 48 hr relative to control; type: functional
Caenorhabditis elegans [8] = assay: Nematicidal activity against adult Caenorhabditis elegans N2 Bristol after 72 hr; type: functional
Caenorhabditis elegans [9] = assay: Nematicidal activity against adult Caenorhabditis elegans N2 Bristol assessed as mortality at 40 mg/l after 120 hr relative to control; type: functional
Meloidogyne incognita [10] = assay: Nematicidal activity against J2 juveniles of Meloidogyne incognita (root-knot nematode) after 168 hr relative to control; type: functional
Meloidogyne incognita [11] = assay: Nematicidal activity against J2 juveniles of Meloidogyne incognita (root-knot nematode) assessed as mortality at 40 mg/l after 48 hr relative to control; type: functional
[12] = test system: Heterorhabditis bacteriophora; assay: Nematicidal activity against J3 juveniles of Heterorhabditis bacteriophora assessed as mortality at 200 mg/l after 168 hr relative to control; type: functional
Caenorhabditis elegans [13] = assay: Nematicidal activity against adult Caenorhabditis elegans N2 Bristol after 120 hr; type: functional
Meloidogyne incognita [14] = assay: Ovicidal activity against Meloidogyne incognita (root-knot nematode) eggs assessed as inhibition of egg hatching at 40 mg/l after 120 hr relative to control; type: functional
[15] = molecular target: T1, Chloride channel protein clh-3 (Caenorhabditis elegans) (UniProt Q9BMK9); conditions: 100 uM
T1 sequence (whole entry): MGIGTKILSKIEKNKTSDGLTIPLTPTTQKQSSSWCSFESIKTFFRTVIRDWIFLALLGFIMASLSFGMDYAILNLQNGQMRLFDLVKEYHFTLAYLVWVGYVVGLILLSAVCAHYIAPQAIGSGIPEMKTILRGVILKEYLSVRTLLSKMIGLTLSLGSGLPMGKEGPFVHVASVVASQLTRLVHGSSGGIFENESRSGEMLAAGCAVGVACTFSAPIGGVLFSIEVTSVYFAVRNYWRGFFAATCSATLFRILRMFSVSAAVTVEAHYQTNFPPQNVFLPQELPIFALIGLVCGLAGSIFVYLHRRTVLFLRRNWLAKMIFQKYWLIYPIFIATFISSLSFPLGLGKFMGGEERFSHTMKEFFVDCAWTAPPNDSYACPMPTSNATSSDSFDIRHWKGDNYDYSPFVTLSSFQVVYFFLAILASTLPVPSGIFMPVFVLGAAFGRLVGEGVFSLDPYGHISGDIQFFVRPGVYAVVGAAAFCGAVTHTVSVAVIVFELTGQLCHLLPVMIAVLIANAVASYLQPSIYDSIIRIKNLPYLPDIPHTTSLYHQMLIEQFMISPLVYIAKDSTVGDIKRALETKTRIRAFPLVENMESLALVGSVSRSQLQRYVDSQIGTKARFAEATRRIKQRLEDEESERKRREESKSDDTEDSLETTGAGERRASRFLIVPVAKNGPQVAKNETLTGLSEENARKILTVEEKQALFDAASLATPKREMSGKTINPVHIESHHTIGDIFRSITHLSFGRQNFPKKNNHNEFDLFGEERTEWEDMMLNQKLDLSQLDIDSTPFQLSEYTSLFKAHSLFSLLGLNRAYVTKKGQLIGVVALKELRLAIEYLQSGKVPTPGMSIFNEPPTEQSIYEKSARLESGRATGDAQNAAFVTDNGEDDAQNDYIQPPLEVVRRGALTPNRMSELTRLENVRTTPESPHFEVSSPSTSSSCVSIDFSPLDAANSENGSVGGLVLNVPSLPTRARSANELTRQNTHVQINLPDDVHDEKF
Description: Inhibition of CECLC-3 in Caenorhabditis elegans oocyte membrane at 100 uM

Caenorhabditis elegans [16] = assay: Inhibition of […] in Caenorhabditis elegans N2 Bristol assessed as increase in pharyngeal musle contraction frequency at 50 mg/l after 1 hr relative to control; type: functional
Caenorhabditis elegans [17] = assay: Nematicidal activity against adult Caenorhabditis elegans N2 Bristol assessed as mortality at 40 mg/l after 24 hr relative to control; type: functional
Meloidogyne incognita [18] = assay: Ovicidal activity against Meloidogyne incognita (root-knot nematode) eggs after 120 hr; type: functional, organism-based
Meloidogyne incognita [19] = assay: Ovicidal activity against Meloidogyne incognita (root-knot nematode) eggs assessed as inhibition of egg hatching at 40 mg/l after 24 to 72 hr relative to control; type: functional; conditions: read-out: mortality
[20] = test system: Bursaphelenchus xylophilus; assay: Nematicidal activity against Bursaphelenchus xylophilus assessed as mortality at 1 mg/l after 48 hr relative to control; type: functional
Caenorhabditis elegans [21] = assay: Nematicidal activity against adult Caenorhabditis elegans after 24 hr; type: functional
Caenorhabditis elegans [22] = assay: Nematicidal activity against J4 juvenile of Caenorhabditis elegans after 24 hr; type: functional
[23] = test system: Heterorhabditis bacteriophora; assay: Nematicidal activity against J3 juveniles of Heterorhabditis bacteriophora assessed as mortality at < 200 mg/l; type: functional, organism-based
[24] = test system: Heterorhabditis bacteriophora; assay: Nematicidal activity against J3 juveniles of Heterorhabditis bacteriophora assessed as mortality at 200 mg/l after 24 hr relative to control; type: functional

SMILES	LC50 (Meloidogyne incognita [1]) [µg/mL]	LC50 (Meloidogyne incognita [2]) [µg/mL]	inhibition (Caenorhabditis elegans [3])	EC50 (Meloidogyne incognita [4]) [µg/mL]	LC50 (Caenorhabditis elegans [5]) [µg/mL]	LC50 (Caenorhabditis elegans [6]) [µg/mL]	mortality at 40 µg/mL (Caenorhabditis elegans [7]) [%]	LC50 (Caenorhabditis elegans [8]) [µg/mL]	mortality at 40 µg/mL (Caenorhabditis elegans [9]) [%]	LC50 (Meloidogyne incognita [10]) [µg/mL]	mortality at 40 µg/mL (Meloidogyne incognita [11]) [%]	mortality at 200 µg/mL [12] [%]	LC50 (Caenorhabditis elegans [13]) [µg/mL]	inhibition at 40 µg/mL (Meloidogyne incognita [14]) [%]	inhibition at 50 µg/mL (Caenorhabditis elegans [16]) [%]	mortality at 40 µg/mL (Caenorhabditis elegans [17]) [%]	inhibition of egg hatching at 40 µg/mL (Meloidogyne incognita [19]) [%]	other results
O=C(O)c1cc([N+](=O)[O-])ccc1NCCCc1ccccc1 [5-NITRO-2-PHENYLPROPYLAMINOBENZOIC ACID [NPPB]]	8.09 (≈ 26.9 µM)	20.1 (≈ 66.9 µM)	inactive	34.1 (≈ 113 µM)	4.56 (≈ 15.2 µM)	38.4 (≈ 128 µM)	> 50	15.9 (≈ 52.8 µM)	100	5.27 (≈ 17.5 µM)	< 50	< 15	7.44 (≈ 24.8 µM)	50	20	< 50	< 50	inhibition [15]: 90%; EC50 (Meloidogyne incognita [18]): 46.5 µg/mL (≈ 155 µM)
COc1ccc(/C=C/c2ccccc2O)cc1 [2-hydroxy-4'-methoxystilbene]																		mortality at 1 µg/mL [20]: 95%
CC(C)c1c(O)cc(/C=C/c2ccccc2)cc1O [TAPINAROF]																		LC50 (Caenorhabditis elegans [21]): 50 µg/mL (≈ 197 µM); LC50 (Caenorhabditis elegans [22]): 50 µg/mL (≈ 197 µM)
CCOP(=S)(OCC)Oc1nc(Cl)c(Cl)cc1Cl [CHLORPYRIFOS]												< 15						Activity [23]: Active; mortality at 200 µg/mL [24]: 100%
O=C(O)c1c2ccccc2cc2ccccc12 [ANTHRACENE-9-CARBOXYLIC ACID]	11.2 (≈ 50.6 µM)	26.8 (≈ 120 µM)	inactive	48 (≈ 216 µM)	5.35 (≈ 24.1 µM)	42.7 (≈ 192 µM)	45	17.8 (≈ 80 µM)	100	6.27 (≈ 28.2 µM)	< 50	< 15	8.44 (≈ 38 µM)	< 50	20	< 50	< 50	
O=S(=O)(O)c1cc(N=C=S)ccc1/C=C/c1ccc(N=C=S)cc1S(=O)(=O)O	7.48 (≈ 16.5 µM)	15.4 (≈ 33.8 µM)	inactive	23.4 (≈ 51.6 µM)	3.14 (≈ 6.91 µM)	29.6 (≈ 65.2 µM)	> 50	8.9 (≈ 19.6 µM)	100	4.46 (≈ 9.81 µM)	< 50	< 15	4.46 (≈ 9.81 µM)	50	20	< 50	< 50	EC50 (Meloidogyne incognita [18]): 29.1 µg/mL (≈ 64.1 µM)
C[C@@]1(C2CCCC2)Cc2cc(OCCC(=O)O)c(Cl)c(Cl)c2C1=O [INDANYLOXYACETIC ACID]			inactive															
